In patent publication US6623769B1, “Administration of lycopene for combating skin/mucous membrane damage” (Societe L'Oreal S.A., priority 1999, dated 2003):

Tested on: promoter of the gene for collagenase 1
Experiment: Inhibition of PMA-induced activity of the collagenase 1 promoter (CAT reporter, CAT-Elisa) in transfected HeLa cells
Format: cell-based
Details: conclusion in words from the Table, PMA induction
Protocol: The activity of a lycopene-rich tomato extract (LycOMato® marketed by Metaphar) was studied on HeLa cells transfected with an expression vector encoding a portion of the promoter of collagenase cloned upstream of the gene for chloramphenicol acetyltransferase (CAT).
The study made it possible to evaluate the effectiveness of a product in inhibiting the induction of the transcription of the gene for collagenase by phorbol 12-myristate 13-acetate (PMA).
The test was carried out on HeLa cells (ATCC CCL2), into which had been introduced the promoter of the gene for collagenase 1 (3.8 kB) cloned upstream of the gene for chloramphenicol acetyltransferase (CAT).
The cells were exposed to PMA at a concentration of 10 nM for 24 hours.
Before administration of PMA, the cells were contacted for 2 hours with lycopene (LycOMato® marketed by Metaphar) at concentrations varying from 10^−7% to 10^−4%, representing lycopene concentrations ranging from 6×10^−9% to 6×10^−6%.
Assaying of the CAT was carried out using a “CAT-Elisa” kit marketed by Boehringer, according to the supplier's instructions.
A “base level” for the expression of the CAT was measured in cells which had neither received PMA nor were treated with the test product.
The results of the test, reported in the following Table, are expressed with respect to the base level (100%) as percentage of inhibition of the expression of the CAT gene.

## CC(C)=CCC/C(C)=C/C=C/C(C)=C/C=C/C(C)=C/C=C/C=C(C)/C=C/C=C(C)/C=C/C=C(\C)CCC=C(C)C [lycopene]
  effect on the synthesis of collagenase 1 by inhibition of the activity of its promoter: inhibitory effect
